# Experimental data published in patent publication US20250325662A1, “METHODS OF TREATING AND PREDICTING NON-RESPONSE TO ANTI-TNF TREATMENT IN SUBJECTS WITH GASTROINTESTINAL TRACT DISEASES” (BT Bidco, Inc., priority 2020, published 2025).
# Structures can show the parent of a compound that is named as a salt.
# Test system: IL-6, GM-CSF, IL-15, IL-2, IL-12, IL-13, TNF-α, and INF-γ
smiles,measurement,setting,value
C[C@@H]1CCN(C(=O)CC#N)C[C@@H]1N(C)c1ncnc2[nH]ccc12 [tofacitinib citrate],IL-6 expression in plasma,"PO or IC administration, 1 h and 3 h post-treatment",inhibition of IL-6 expression
same,inhibition of IL-6 expression in colon tissue,all IC treated groups and high dose PO group (45 mg/kg),sustained through 24 h post-dose
same,IL-6 inhibition in colon tissue,"low dose PO group (15 mg/kg), by 12 h post-dose",Recovery from IL-6 inhibition
